Source: patent US5786492A, “Halichondrins” (Pharma Mar, S.A., priority 1992, dated 1998)
≈ marks a conversion by molar mass, not a printed value.

Test system: P388 cell line
Test: antitumor P388 bioassay
Type: cell-based, murine
Conditions: for IC50, murine leukaemia cell (P388 cell line): text comparison of three halichondrins
Description: Most of the compounds have been submitted to the antitumor P388 bioassay.

Compound | IC50 against P388 cell line (conc 0.0001 (unit of conc not given)) [ng/mL] | IC50 against P388 cell line (conc 0.001 (unit of conc not given)) [ng/mL] | IC50 against P388 cell line (other day, conc 0.001 (unit of conc not given)) [ng/mL] | IC50, murine leukaemia cell (P388 cell line) [ng/mL]
C=C1C[C@@H]2CC[C@@]34C[C@H]5O[C@H]6[C@@H](O3)[C@H]3O[C@H](CC[C@@H]3O[C@H]6[C@H]5O4)CC(=O)O[C@@H]3[C@@H](C)[C@@H]4O[C@@H]5C[C@]6(C[C@@H]7O[C@]8(C[C@H](C)[C@@H]9O[C@H]([C@@H](O)C[C@@H](O)CO)C[C@@H]9O8)C[C@H](C)[C@@H]7O6)O[C@@H]5C[C@@H]4O[C@H]3C[C@H]3O[C@@H](CC[C@@H]1O2)C[C@@H](C)C3=C [Halichondrin B] | 0.78 (≈ 0.702 nM) | 1.58 (≈ 1.42 nM) | < 0.09 | 6.7 (≈ 6.03 nM)
C=C1C[C@@H]2CC[C@@]34C[C@H]5O[C@H]6[C@@H](O3)[C@H]3O[C@H](CC[C@@H]3O[C@H]6[C@H]5O4)CC(=O)O[C@@H]3[C@@H](C)[C@@H]4O[C@@H]5C[C@]6(C[C@@H]7O[C@]8(C[C@H](C)[C@@H]9O[C@@H]%10CC(C(O)CO)O[C@@H]%10C[C@@H]9O8)C[C@H](C)[C@@H]7O6)O[C@@H]5C[C@@H]4O[C@H]3C[C@H]3O[C@@H](CC[C@@H]1O2)C[C@@H](C)C3=C (some centres unmarked) [Homohalichondrin B] |  |  |  | 6.4 (≈ 5.7 nM)
